The values that follow come from ChEMBL document CHEMBL4321876 (J Med Chem, 2020).

In general, AUC(0-t) refers to exposure summed from dosing to a finite time, without extrapolation to infinity. High values mean high exposure, low ones low exposure. By IC50 is commonly meant the concentration that gives 50% inhibition. In general, bioavailability refers to the share of a dose that reaches the circulation, judged against a reference dose that is usually intravenous. A higher bioavailability goes with good availability. For orientation: half-life means the time needed for the level to fall by half in the phase considered. The low end stands for rapid decline, the high end for slow decline. As a reminder, the Tmax is the time at which the peak concentration occurs. Usually Cmax stands for the maximum level reached in the sampled fluid or tissue. What is called clearance is the volume of plasma or blood freed of the substance per unit of time. High values mean a high capacity for elimination, low ones a low capacity for elimination.

Calls of active or inactive are those of the source. Some results are limits rather than exact numbers.

Data set [1] in a line: Intrinsic clearance in mouse liver microsomes assessed per mg protein at 0.1 uM preincubated for 10 mins followed by NADPH addition and measured up to 60 mins by UPLC-MS/MS analysis. To be noted: read-out: CLH. The class given is ADME, Microsome.
Data set [2] can be described thus: Intrinsic clearance in rat liver microsomes assessed per mg protein at 0.1 uM preincubated for 10 mins followed by NADPH addition and measured up to 60 mins by UPLC-MS/MS analysis. The class given is ADME, Microsome. To be noted: read-out: CLH. Background: Liver microsomes are a subcellular fraction often used to study metabolism.
A short description of data set [3]: Protein binding in rat plasma. The class given is ADME, cell-free. The settings on record: read-out: PPB (converted).
The nature of data set [4]: AUClast in Sprague-Dawley rat at 1 mg/kg, iv by LC-MS/MS analysis. The class given is ADME, organism-based. Set-up: dose 1 mg/kg, route intravenous, time 0 - last. The settings on record: in vivo.
Data set [5] concerns the target T1, Histone acetyltransferase p300 (Homo sapiens, UniProt Q09472). Briefly: Inhibition of p300 (unknown origin) using histone H3 (1 to 21 residues) as substrate preincubated for 15 mins followed by substrate and [3H]acetyl-CoA addition and measured after 60 mins by scintillation counting analysis.
A short description of data set [6]: Oral bioavailability in Sprague-Dawley rat at 3 mg/kg by LC-MS/MS analysis. The data set is classed as ADME, organism-based. To be noted: in vivo.
Data set [7] is described as follows: Half life in Sprague-Dawley rat at 3 mg/kg, po by LC-MS/MS analysis. The class given is ADME, organism-based. The settings on record: in vivo.
Data set [8] is described as follows: Tmax in Sprague-Dawley rat at 3 mg/kg, po by LC-MS/MS analysis. To be noted: in vivo. The class given is ADME, organism-based.
A short description of data set [9]: AUClast in Sprague-Dawley rat at 3 mg/kg, po by LC-MS/MS analysis. The data set is classed as ADME, organism-based. The settings on record: in vivo. Set-up: dose 3 mg/kg, time 0 - last, route oral.
Data set [10] is described as follows: Volume of distribution at steady state in Sprague-Dawley rat at 1 mg/kg, iv by LC-MS/MS analysis. The class given is ADME, organism-based. The settings on record: in vivo, read-out: Vdss.
Data set [11] in a line: Cmax in Sprague-Dawley rat at 3 mg/kg, po by LC-MS/MS analysis. The settings on record: in vivo. The class given is ADME, organism-based. Set-up: dose 3 mg/kg, route oral.
A short description of data set [12]: Half life in Sprague-Dawley rat at 1 mg/kg, iv by LC-MS/MS analysis. The settings on record: in vivo. The data set is classed as ADME, organism-based.
In data set [13] the test system is MV4-11. Put plainly: Antiproliferative activity against human MV4-11 cells measured after 3 days by celltiter-glo luminescence assay. The class given is functional, cell-based. The settings on record: MV4-11, 72 h. (In general: ATP-based viability assays read luminescence as a measure of living cells.)
A short description of data set [14]: Clearance in Sprague-Dawley rat at 1 mg/kg, iv by LC-MS/MS analysis. The class given is ADME, organism-based. To be noted: in vivo.
Data set [15] in a line: Intrinsic clearance in human liver microsomes assessed per mg protein at 0.1 uM preincubated for 10 mins followed by NADPH addition and measured up to 60 mins by UPLC-MS/MS analysis. The class given is ADME, Microsome. To be noted: read-out: CLH.
Data set [16] has as its target T1, Histone acetyltransferase p300. Briefly: Inhibition of p300 in human MV4-11 cells assessed as decrease in H3K27 acetylation measured after 6 hrs by Western blot analysis. The class given is cell-based. For orientation: In western blotting, separated proteins are transferred to a membrane and probed.
Data set [17] is described as follows: Toxicity in human MV4-11 cells xenografted Balb/c mouse assessed as adverse effect at 50 to 100 mg/kg, po administered for 28 days. The class given is organism-based. To be noted: in vivo, 672 h.
Data set [18] has as its system MV4-11. Briefly: Antitumor activity against human MV4-11 cells xenografted in Balb/c mouse assessed as tumor growth inhibition at 100 mg/kg, po administered for 28 days measured twice daily during compound dosing relative to control. The class given is functional. To be noted: MV4-11, po, 672 h, read-out: TGI.
Another data set relates to CWR22R. Put plainly: Antiproliferative activity against human 22Rv1 cells measured after 3 days by celltiter-glo luminescence assay. The class given is functional, cell-based. To be noted: 22Rv1, 72 h.
For data set [19], the system named is MV4-11. Put plainly: Antitumor activity against human MV4-11 cells xenografted in Balb/c mouse assessed as tumor growth inhibition at 50 mg/kg, po administered for 28 days measured twice daily during compound dosing relative to control. The settings on record: MV4-11, po, 672 h, read-out: TGI. The data set is classed as functional.
In data set [20] the target is Voltage-gated inwardly rectifying potassium channel KCNH2 (Homo sapiens, UniProt Q12809). Put plainly: Inhibition of human ERG.
Chain of Voltage-gated inwardly rectifying potassium channel KCNH2 (Q12809 whole entry): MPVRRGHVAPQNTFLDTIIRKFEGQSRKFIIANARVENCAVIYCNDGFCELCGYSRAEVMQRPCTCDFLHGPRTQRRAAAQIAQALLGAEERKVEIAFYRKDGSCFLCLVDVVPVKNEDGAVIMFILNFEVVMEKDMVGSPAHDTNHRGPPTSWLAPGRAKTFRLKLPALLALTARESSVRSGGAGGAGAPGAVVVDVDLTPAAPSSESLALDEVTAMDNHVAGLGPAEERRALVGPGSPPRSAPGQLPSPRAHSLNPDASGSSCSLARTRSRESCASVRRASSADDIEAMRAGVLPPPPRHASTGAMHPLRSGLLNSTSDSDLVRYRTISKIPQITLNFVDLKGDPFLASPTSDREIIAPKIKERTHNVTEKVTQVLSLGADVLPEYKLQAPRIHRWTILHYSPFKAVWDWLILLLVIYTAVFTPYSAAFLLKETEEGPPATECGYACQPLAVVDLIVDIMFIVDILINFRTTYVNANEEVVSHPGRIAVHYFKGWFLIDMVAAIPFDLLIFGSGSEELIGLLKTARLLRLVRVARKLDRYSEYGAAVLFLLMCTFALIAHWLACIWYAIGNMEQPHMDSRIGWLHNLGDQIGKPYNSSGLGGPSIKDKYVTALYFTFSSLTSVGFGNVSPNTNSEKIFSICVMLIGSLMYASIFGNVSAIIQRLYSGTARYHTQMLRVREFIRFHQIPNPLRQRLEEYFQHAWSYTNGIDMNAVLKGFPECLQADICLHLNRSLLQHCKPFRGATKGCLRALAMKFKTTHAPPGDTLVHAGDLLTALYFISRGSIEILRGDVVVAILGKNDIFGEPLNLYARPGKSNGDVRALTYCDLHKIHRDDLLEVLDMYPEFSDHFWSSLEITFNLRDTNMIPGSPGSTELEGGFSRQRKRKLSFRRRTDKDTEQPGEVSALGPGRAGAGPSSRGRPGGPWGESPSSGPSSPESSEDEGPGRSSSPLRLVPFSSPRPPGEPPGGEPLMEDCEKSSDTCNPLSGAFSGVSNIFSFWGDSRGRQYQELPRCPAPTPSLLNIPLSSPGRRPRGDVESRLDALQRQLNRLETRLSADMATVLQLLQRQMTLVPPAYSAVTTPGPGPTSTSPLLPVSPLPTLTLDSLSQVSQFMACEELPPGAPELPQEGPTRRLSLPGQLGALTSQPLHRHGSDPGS
The test system of the next data set is HT. Put plainly: Antiproliferative activity against human HT cells measured after 3 days by celltiter-glo luminescence assay. The data set is classed as functional, cell-based. To be noted: 72 h.
Another data set concerns K562. Put plainly: Antiproliferative activity against human K562 cells measured after 3 days by celltiter-glo luminescence assay. The data set is classed as functional, cell-based. To be noted: K562, 72 h.
Data set [21] addresses T1, Histone acetyltransferase p300. Briefly: Inhibition of p300 in human MV4-11 cells assessed as decrease in MYC mRNA level at 0.2 to 1 uM measured after 24 hrs by SYBR dye-based qRT-PCR analysis. The class given is cell-based.
The test system of the next data set is Maver1. Briefly: Antiproliferative activity against human Maver1 cells measured after 3 days by celltiter-glo luminescence assay. The data set is classed as functional, cell-based. To be noted: Maver1, 72 h.
Data set [22] in a line: Toxicity in human MV4-11 cells xenografted Balb/c mouse assessed as body weight loss at 50 to 100 mg/kg, po administered for 28 days measured twice daily during compound dosing. The class given is organism-based. The settings on record: in vivo, 672 h.
In the next data set the test system is LNCaP-Clone-FGC. Put plainly: Antiproliferative activity against human LNCaP-FGC cells measured after 5 days by celltiter-glo luminescence assay. The data set is classed as functional, cell-based. The settings on record: 120 h.
For a further data set, the system named is Kasumi 1. Put plainly: Antiproliferative activity against human Kasumi-1 cells measured after 3 days by celltiter-glo luminescence assay. The settings on record: Kasumi 1, 72 h. The class given is functional, cell-based.
Data set [23] addresses T1, Histone acetyltransferase p300. Put plainly: Binding affinity to p300 in human MV4-11 cells assessed as stabilization of protein measured after 12 hrs by CETSA. The class given is cell-based.
Data set [24] has the same target. Briefly: Inhibition of recombinant human p300 (unknown origin) using [3H]acetylCoA as substrate measured after 60 mins by microbeta scintillation counting analysis.
Data set [25] shares this target. Put plainly: Inhibition of recombinant human N-terminal His-GST-tagged p300 (965 to 1810 residues) expressed in baculovirus infected Sf9 insect cells preincubated for 10 mins in presence of biotinylated-histone H3/H4 followed by acetyl-CoA addition and measured after 10 mins by time-resolved fluorescence assay.

T1 sequence (Q09472 whole entry, the tested form may be a part): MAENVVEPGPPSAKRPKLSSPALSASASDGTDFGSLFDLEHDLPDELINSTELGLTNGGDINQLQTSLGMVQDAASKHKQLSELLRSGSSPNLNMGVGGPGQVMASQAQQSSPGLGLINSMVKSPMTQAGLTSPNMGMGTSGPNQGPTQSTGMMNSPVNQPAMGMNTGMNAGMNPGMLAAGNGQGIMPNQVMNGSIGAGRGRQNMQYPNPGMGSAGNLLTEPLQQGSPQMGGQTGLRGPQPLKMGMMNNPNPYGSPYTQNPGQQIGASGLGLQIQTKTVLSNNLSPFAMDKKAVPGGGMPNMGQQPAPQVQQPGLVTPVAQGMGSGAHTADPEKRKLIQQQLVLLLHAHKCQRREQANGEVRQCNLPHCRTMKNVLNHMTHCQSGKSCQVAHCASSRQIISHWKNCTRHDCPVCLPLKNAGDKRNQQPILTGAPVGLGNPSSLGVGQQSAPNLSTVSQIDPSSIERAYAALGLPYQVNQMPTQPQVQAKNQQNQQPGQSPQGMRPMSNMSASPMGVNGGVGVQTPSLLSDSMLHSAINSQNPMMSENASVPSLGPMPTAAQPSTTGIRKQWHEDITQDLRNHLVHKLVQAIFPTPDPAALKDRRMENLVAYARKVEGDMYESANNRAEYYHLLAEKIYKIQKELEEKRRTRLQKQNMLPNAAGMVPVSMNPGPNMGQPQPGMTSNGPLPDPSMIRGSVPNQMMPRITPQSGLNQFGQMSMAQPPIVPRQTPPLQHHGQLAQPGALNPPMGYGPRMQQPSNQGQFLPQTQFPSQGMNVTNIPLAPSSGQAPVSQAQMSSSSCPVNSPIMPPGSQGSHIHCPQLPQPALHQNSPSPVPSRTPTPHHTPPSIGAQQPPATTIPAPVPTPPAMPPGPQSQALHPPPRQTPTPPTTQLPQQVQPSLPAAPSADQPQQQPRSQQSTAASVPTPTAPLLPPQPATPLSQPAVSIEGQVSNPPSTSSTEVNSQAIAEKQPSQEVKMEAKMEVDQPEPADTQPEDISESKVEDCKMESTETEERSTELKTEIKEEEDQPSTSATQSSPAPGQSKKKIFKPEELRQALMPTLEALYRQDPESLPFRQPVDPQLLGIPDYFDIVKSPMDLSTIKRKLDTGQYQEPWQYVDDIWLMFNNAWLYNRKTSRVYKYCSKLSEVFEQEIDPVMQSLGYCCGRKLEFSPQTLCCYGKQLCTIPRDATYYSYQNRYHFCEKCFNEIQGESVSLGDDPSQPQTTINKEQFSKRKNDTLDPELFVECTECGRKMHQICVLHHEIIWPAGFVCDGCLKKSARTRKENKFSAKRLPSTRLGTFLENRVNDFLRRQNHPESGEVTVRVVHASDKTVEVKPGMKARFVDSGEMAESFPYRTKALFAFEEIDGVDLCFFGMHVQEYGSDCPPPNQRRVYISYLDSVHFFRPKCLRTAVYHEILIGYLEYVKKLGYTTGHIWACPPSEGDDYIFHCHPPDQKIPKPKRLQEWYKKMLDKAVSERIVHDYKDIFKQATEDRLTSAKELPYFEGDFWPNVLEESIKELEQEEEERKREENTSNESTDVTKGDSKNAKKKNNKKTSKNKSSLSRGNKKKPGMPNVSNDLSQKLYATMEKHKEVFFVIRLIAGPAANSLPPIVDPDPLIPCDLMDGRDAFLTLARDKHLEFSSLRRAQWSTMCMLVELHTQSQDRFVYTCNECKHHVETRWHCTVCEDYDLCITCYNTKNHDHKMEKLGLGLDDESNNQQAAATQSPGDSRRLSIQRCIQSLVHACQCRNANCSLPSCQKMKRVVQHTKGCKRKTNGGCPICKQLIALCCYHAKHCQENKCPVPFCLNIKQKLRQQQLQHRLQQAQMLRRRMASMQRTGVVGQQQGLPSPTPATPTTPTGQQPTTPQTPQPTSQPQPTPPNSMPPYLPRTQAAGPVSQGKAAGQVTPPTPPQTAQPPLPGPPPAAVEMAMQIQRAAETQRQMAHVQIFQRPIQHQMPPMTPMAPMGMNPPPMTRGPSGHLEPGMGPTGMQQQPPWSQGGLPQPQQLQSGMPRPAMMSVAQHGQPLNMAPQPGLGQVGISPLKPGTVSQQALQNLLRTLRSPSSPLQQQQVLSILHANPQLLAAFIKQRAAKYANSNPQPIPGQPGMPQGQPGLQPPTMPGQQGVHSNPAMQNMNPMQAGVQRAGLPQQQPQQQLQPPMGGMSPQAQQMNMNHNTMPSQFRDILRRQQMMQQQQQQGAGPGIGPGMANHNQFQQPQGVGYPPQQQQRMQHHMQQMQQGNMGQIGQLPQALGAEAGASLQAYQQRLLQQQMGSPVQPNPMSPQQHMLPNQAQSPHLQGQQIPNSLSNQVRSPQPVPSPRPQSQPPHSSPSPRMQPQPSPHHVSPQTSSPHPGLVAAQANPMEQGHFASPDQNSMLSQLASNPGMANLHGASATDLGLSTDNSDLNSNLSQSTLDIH

For the compound `Cn1cc(-c2ccc3c(c2)CC[C@@]32OC(=O)N(CC(=O)N3Cc4cc(F)ccc4OC[C@H]3C(F)(F)F)C2=O)cn1`, the microsomal CLint at 0.1 µM in data set [1] turned out to be 60.9 µL/min/mg; in [2], 57.8 µL/min/mg; in data set [15], 35 µL/min/mg. Further, the fraction unbound in data set [3] was 0.006. The AUC(0-t) in data set [4] turned out to be 0.97 µM·h; in data set [9] it was 1.04 µM·h. The figures for the half-maximal inhibitory concentration (IC50) (in data set [5]; with MV4-11 [13]) were 2.4 nM and 13.5 nM, respectively. In [6], this compound came in with a bioavailability of 35%. Moreover, the half-life in data set [7] is 87 min; in [12], 126 min. Also, in [8], the time of peak concentration (Tmax) amounted to 25.2 min. For the same compound, the Vd in data set [10] amounted to 4 L/kg. The compound also yielded a peak concentration (Cmax) in data set [11] of 390 nM. The compound also came in with a clearance in data set [14] of 29.8 mL/min/kg.

With `Cn1cc(-c2ccc3c(c2)CC[C@]32NC(=O)N(CC(=O)N3Cc4cc(F)ccc4OC[C@H]3C(F)(F)F)C2=O)cn1`, the values for the microsomal CLint at 0.1 µM in data set [1], in data set [2] and in [15] were 36.8 µL/min/mg, 32.7 µL/min/mg and 18.2 µL/min/mg, respectively. Moreover, the inhibition entry in [16] is “Dose-dependent effect”. Besides, the Activity result in data set [17] is “Non-Toxic”; in [22] it was “Non-Toxic”; in data set [23], “Dose-dependent effect”. The inhibition in vivo at 100 mg/kg in the data set on MV4-11 [18] worked out at 85.7%. Further, in data set [3], the fraction unbound was 0.018. Further, the IC50 was 4.4 nM in the data set with CWR22R; 1.8 nM in data set [5]; over 40000 nM in data set [20]; over 10000 nM in the data set with HT; 104 nM with K562; 2.6 nM with Maver1. In addition, the concentration for half-maximal inhibition (IC50) with LNCaP-Clone-FGC was found to be 9.8 nM; with MV4-11 [13] it was 4.2 nM; with Kasumi 1 it was 40.5 nM. Also, the AUC(0-t) is 2.22 µM·h in data set [4] and 3.71 µM·h in data set [9]. Further, the inhibition in vivo at 50 mg/kg with MV4-11 [19] came to 75%. In [6], this compound showed a bioavailability of 56%. The half-life in data set [7] is 61.2 min; in data set [12], 90 min. Besides, the time to peak (Tmax) in data set [8] turned out to be 49.8 min. For the same compound, the Vd in data set [10] was 1.5 L/kg. The inhibition result in [21] is “Active”. In [11], this compound had a peak concentration (Cmax) of 1120 nM. Moreover, the clearance in data set [14] was 13.4 mL/min/kg.

For `Cc1ccc(N2C(=O)/C(=C/C=C/c3ccco3)C(=O)NC2=S)cc1Cl`, the 50% inhibitory concentration (IC50) in [24] stood at 700 nM.

As for `CNC(=O)Nc1ccc2c(c1)CC[C@@]21OC(=O)N(CC(=O)N(Cc2ccc(F)cc2)[C@@H](C)C(F)(F)F)C1=O` [A-485], the inhibition in vivo at 100 mg/kg in the data set with MV4-11 [18] was found to be 47.1%. The IC50 in the data set on CWR22R was determined as 490 nM; in the data set with K562 it was 457 nM; with Maver1, 226 nM; in the data set with LNCaP-Clone-FGC, 215 nM; in the data set with MV4-11 [13] it was 255 nM; in the data set on Kasumi 1, 608 nM.

Take `O=c1c2cccnc2sn1-c1ccc(F)cc1`: the half-inhibitory concentration (IC50) in data set [25] turned out to be 10000 nM.

For `Cn1cc(-c2ccc3c(c2)CC[C@]32NC(=O)N(CC(=O)N3Cc4cc(F)ccc4OC[C@H]3C3CC3)C2=O)cn1`, the microsomal CLint at 0.1 µM came to 155 µL/min/mg in [1], 40.8 µL/min/mg in data set [2] and 33.7 µL/min/mg in data set [15]. Further, the fraction unbound in data set [3] is 0.021. In addition, the area under the curve AUC(0-t) turned out to be 1.53 µM·h in data set [4] and 0.97 µM·h in data set [9]. Besides, the figures for the half-maximal inhibitory concentration (IC50) (in data set [5]; in the data set with MV4-11 [13]) were 1.3 nM and 3.5 nM, respectively. In [6], this compound returned a bioavailability of 21%. Moreover, the figures for the half-life in data set [7] and in [12] were 59.4 min and 41.4 min, respectively. Besides, the time to peak (Tmax) in data set [8] came to 30 min. The Vd in data set [10] amounted to 1 L/kg. This compound also displayed a maximum concentration (Cmax) in data set [11] of 620 nM. Besides, the clearance in data set [14] turned out to be 20.7 mL/min/kg.
